In the supplement of paper PMC11061612:

What was measured:
[1] = tested on: AN3-CA (Endometrial Carcinoma); test: combination Emax (second highest fraction inhibited in the dose matrix, 72 h); higher = more inhibition; extreme values may be limits of the assay
Procedure, shortened: (§1)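 Cell lines in DMEM/F12 or RPMI with 10% FBS were plated in 1536-well plates, held 24 hours at 37°C, 5% CO2, then given two-drug dose matrices for 72 hours (DMSO typically 0.2%). Viability was read by CellTiter-Glo 2.0 luminescence and scaled as inhibition from 0 (vehicle wells) to 1 (blank wells). Combination Emax is the second-highest inhibition in the matrix; Bliss excess is observed combination effect minus expected EA + EB − EA·EB, EA and EB being single-agent effects.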

[2] = tested on: HSC-3 (Oral Cavity Carcinoma); test: as above
Procedure, shortened: as §1

[3] = tested on: OV-90 (Ovarian Carcinoma); test: as above
Procedure, shortened: as §1

[4] = tested on: NCI-H196 (Small Cell Lung Carcinoma); test: as above
Procedure, shortened: as §1

[5] = tested on: PC-14 (Lung Adenocarcinoma); test: as above
Procedure, shortened: as §1

[6] = tested on: RPMI-8866 (Chronic Myelogenous Leukemia); test: as above
Procedure, shortened: as §1

[7] = tested on: OVTOKO (Ovarian Carcinoma); test: as above
Procedure, shortened: as §1

[8] = tested on: AsPC-1 (Pancreatic Carcinoma); test: as above
Procedure, shortened: as §1

[9] = tested on: EB-3 (Burkitt's Lymphoma); test: as above
Procedure, shortened: as §1

[10] = tested on: JHH-1 (Hepatocellular Carcinoma); test: as above
Procedure, shortened: as §1

[11] = tested on: SK-MM-2 (Plasma Cell Myeloma); test: as above
Procedure, shortened: as §1

[12] = tested on: OCI-AML5 (Acute Myeloid Leukemia); test: as above
Procedure, shortened: as §1

CHL-1 (Melanoma) = test: as above
Procedure, shortened: as §1

ES-2 (Ovarian Carcinoma) [13] = test: as above
Procedure, shortened: as §1

[14] = tested on: NCI-H1755 (Lung Adenocarcinoma); test: as above
Procedure, shortened: as §1

[15] = tested on: SW684 (Other Solid Carcinomas); test: as above
Procedure, shortened: as §1

[16] = tested on: RMG-I (Ovarian Carcinoma); test: as above
Procedure, shortened: as §1

[17] = tested on: LOUCY (T-Lymphoblastic Leukemia); test: as above
Procedure, shortened: as §1

[18] = tested on: Becker (Low Grade Glioma); test: Bliss excess, mean over the matrix (fraction); higher = more synergy
Procedure, shortened: as §1

ES-2 (Ovarian Carcinoma) [19] = test: as above
Procedure, shortened: as §1
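Wherever Bliss excess, mean over the matrix is given: after 72 h of two-drug dosing.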

| SMILES | combination Emax [1] | combination Emax [2] | combination Emax [3] | combination Emax [4] | combination Emax [5] | combination Emax [6] | combination Emax [7] | combination Emax [8] | combination Emax [9] | combination Emax [10] | combination Emax [11] | combination Emax [12] | combination Emax (CHL-1 (Melanoma)) | combination Emax (ES-2 (Ovarian Carcinoma) [13]) | combination Emax [14] | combination Emax [15] | combination Emax [16] | combination Emax [17] | Bliss excess [18] | Bliss excess (ES-2 (Ovarian Carcinoma) [19]) |
| --- | --- | --- | --- | --- | --- | --- | --- | --- | --- | --- | --- | --- | --- | --- | --- | --- | --- | --- | --- | --- |
| CC1(C)CCC(CN2CCN(c3ccc(C(=O)NS(=O)(=O)c4ccc(NCC5CCOCC5)c([N+](=O)[O-])c4)c(Oc4cnc5[nH]ccc5c4)c3)CC2)=C(c2ccc(Cl)cc2)C1 [Venetoclax] + Cc1cc2ncnn2cc1Nc1ncc2c(n1)n(C1CCOCC1)c(=O)n2C [AZD7648] (first compound max 1 µM, 7x7, partner max 10 µM) | 0.411 | 0.207 | 0.298 | 0.121 | 0.293 | 0.316 | 0.381 | 0.246 | 0.477 | 0.199 | 1 | 0.943 | 0.215 | 0.249 | 0.534 | 0.273 | 0.312 | 1 | 0.0128 | -0.0087 |
| C=CCn1c(=O)c2cnc(Nc3ccc(N4CCN(C)CC4)cc3)nc2n1-c1cccc(C(C)(C)O)n1 [AZD1775] + C1CN(CCC1(C(=O)N[C@@H](CCO)C2=CC=C(C=C2)Cl)N)C3=NC=NC4=C3C=CN4 [Capivasertib] (first compound max 3 µM, partner max 3 µM) | 0.905 | 0.773 | 0.587 | 0.578 | 0.859 | 0.964 | 0.594 | 0.505 | 0.829 | 0.691 | 0.501 | 0.893 | 0.826 | 0.817 | 0.8 | 0.467 | 0.47 | 1 | -0.0716 | -0.0209 |
| CC(=O)Nc1cccc(-n2c(=O)n(C3CC3)c(=O)c3c(Nc4ccc(I)cc4F)n(C)c(=O)c(C)c32)c1 [Trametinib] + Cc1nc(-c2cn3c(n2)-c2ccc(-c4cnn(C(C)(C)C(N)=O)c4)cc2OCC3)n(C(C)C)n1 [Taselisib] (first compound max 1 µM, 7x7, partner max 10 µM) | 0.997 | 0.986 | 0.834 | 0.376 | 1 | 0.71 | 0.795 | 0.608 | 0.373 | 1 | 0.43 | 1 | 0.638 | 0.725 | 0.978 | 0.929 | 0.485 | 0.527 | 0.121 | 0.0915 |
| COc1cccc(OCCCN)c1-c1cc(Nc2cnc(C#N)cn2)n[nH]1 [Prexasertib] + C=CCn1c(=O)c2cnc(Nc3ccc(N4CCN(C)CC4)cc3)nc2n1-c1cccc(C(C)(C)O)n1 [AZD1775] (first compound max 1 µM, partner max 1 µM) | 0.954 | 0.847 | 0.628 | 0.723 | 0.932 | 1 | 0.606 | 0.41 | 0.818 | 0.656 | 0.723 | 1 | 0.845 | 0.844 | 0.926 | 0.598 | 0.727 | 1 | 0.0374 | 0.0006 |
| NC1(C(=O)N[C@@H](CCO)c2ccc(Cl)cc2)CCN(c2ncnc3[nH]ccc23)CC1 [Capivasertib] + Cn1cnc2c(F)c(Nc3ccc(Br)cc3Cl)c(C(=O)NOCCO)cc21 [Selumetinib] (first compound max 10 µM, 7x7, partner max 10 µM) | 0.815 | 0.786 | 0.627 | 0.281 | 0.834 | 0.432 | 0.565 | 0.491 | 0.325 | 0.295 | 0.36 | 0.951 | 0.367 | 0.616 | 0.644 | 0.626 | 0.392 | 0.66 | 0.0788 | 0.0171 |
| Cc1c2c(nn1C)CSCc1cc(n(C)n1)CSc1cc(c3ccccc3c1)OCCCc1c(C(=O)O)n(C)c3c-2c(Cl)ccc13 [AZD5991] + C[C@@H](Nc1cc(F)cc(F)c1)c1cc(C(=O)N(C)C)cc2c(=O)cc(N3CCOCC3)oc12 [AZD8186] (first compound max 1 µM, 7x7, partner max 3 µM) | 0.899 | 0.536 | 0.214 | 0.282 | 0.255 | 0.592 | 0.605 | 0.235 | 0.262 | 0.462 | 0.271 | 1 | 0.485 | 0.264 | 0.418 | 0.454 | 0.426 | 0.47 | 0.0192 | -0.0108 |
| NC1(C(=O)N[C@@H](CCO)c2ccc(Cl)cc2)CCN(c2ncnc3[nH]ccc23)CC1 [Capivasertib] + CC(=O)c1c(C)c2cnc(Nc3ccc(N4CCNCC4)cn3)nc2n(C2CCCC2)c1=O [Palbociclib] (first compound max 10 µM, 7x7, partner max 10 µM) | 0.803 | 0.78 | 0.305 | 0.258 | 0.582 | 0.75 | 0.572 | 0.396 | 0.428 | 0.143 | 0.409 | 0.479 | 0.191 | 0.72 | 0.659 | 0.54 | 0.288 | 0.688 | 0.0816 | 0.0008 |
| CN(C)CCCOc1ccc(-c2ccc3ncc4c(c3c2)n(C2CCOCC2)c(=O)n4C)cn1 [AZD0156] + O=C(c1cc(Cc2n[nH]c(=O)c3ccccc23)ccc1F)N1CCN(C(=O)C2CC2)CC1 [Olaparib] (first compound max 3 µM, partner max 3 µM) | 0.352 | 0.467 | 0.257 | 0.145 | 0.236 | 0.285 | 0.33 | 0.297 | 0.568 | 0.196 | 0.348 | 0.139 | 0.186 | 0.448 | 0.414 | 0.141 | 0.29 | 0.368 | -0.0359 | 0.0327 |
| CCN(CCO)CCCOc1ccc2c(Nc3cc(CC(=O)Nc4cccc(F)c4)[nH]n3)ncnc2c1 [AZD2811] + O=C(c1cc(Cc2n[nH]c(=O)c3ccccc23)ccc1F)N1CCN(C(=O)C2CC2)CC1 [Olaparib] (first compound max 1 µM, 7x7, partner max 10 µM) | 0.282 | 0.351 | 0.249 | 0.12 | 0.303 | 0.69 | 0.223 | 0.18 | 0.282 | 0.161 | 0.232 | 0.966 | 0.24 | 0.192 | 0.576 | 0.265 | 0.231 | 0.924 | -0.0371 | -0.0182 |
| Cc1nc(Nc2ncc(C(=O)Nc3c(C)cccc3Cl)s2)cc(N2CCN(CCO)CC2)n1 [Dasatinib] + CC(=O)Nc1cccc(-n2c(=O)n(C3CC3)c(=O)c3c(Nc4ccc(I)cc4F)n(C)c(=O)c(C)c32)c1 [Trametinib] (first compound max 2 µM, 7x7, partner max 1 µM) | 0.491 | 0.867 | 0.752 | 0.103 | 1 | 0.556 | 0.748 | 0.612 | 0.362 | 0.806 | 0.123 | 0.81 | 0.409 | 0.86 | 0.961 | 0.609 | 0.505 | 0.344 | 0.0234 | 0.0522 |
| CN(C)CCCOc1ccc(-c2ccc3ncc4c(c3c2)n(C2CCOCC2)c(=O)n4C)cn1 [AZD0156] + C[C@@H]1COCCN1C2=NC(=NC(=C2)C3(CC3)[S@](=N)(=O)C)C4=C5C=CNC5=NC=C4 [AZD6738] (first compound max 1 µM, 7x7, partner max 10 µM) | 0.491 | 0.487 | 0.437 | 0.292 | 0.828 | 0.967 | 0.471 | 0.454 | 0.763 | 0.596 | 0.625 | 0.917 | 0.798 | 0.808 | 0.816 | 0.301 | 0.528 | 1 | -0.0248 | -0.0217 |
| COc1cccc(OCCCN)c1-c1cc(Nc2cnc(C#N)cn2)n[nH]1 [Prexasertib] + O=C(c1cc(Cc2n[nH]c(=O)c3ccccc23)ccc1F)N1CCN(C(=O)C2CC2)CC1 [Olaparib] (first compound max 1 µM, 7x7, partner max 10 µM) | 0.81 | 0.719 | 0.558 | 0.556 | 0.848 | 1 | 0.52 | 0.332 | 0.694 | 0.582 | 0.656 | 0.991 | 0.838 | 0.788 | 0.907 | 0.43 | 0.515 | 1 | -0.0257 | -0.102 |
| Cn1cnc2c(F)c(Nc3ccc(Br)cc3Cl)c(C(=O)NOCCO)cc21 [Selumetinib] + C=CCn1c(=O)c2cnc(Nc3ccc(N4CCN(C)CC4)cc3)nc2n1-c1cccc(C(C)(C)O)n1 [AZD1775] (first compound max 10 µM, partner max 1 µM) | 0.354 | 0.601 | 0.628 | 0.347 | 0.928 | 0.956 | 0.452 | 0.437 | 0.703 | 0.599 | 0.236 | 0.944 | 0.572 | 0.66 | 0.776 | 0.152 | 0.359 | 0.977 | 0.0145 | 0.0334 |
